Experiment [1] deals with T1, human D3 dopamine receptor (Homo sapiens, UniProt P35462).
T1 construct: expressed in transfected cells; host or cells: HEK-293 EBNA cells, transient transfection; membrane preparation
The experiment can be described thus: Radioligand binding ([3H]-spiperone) to cloned human D3 receptor, HEK-293 EBNA cell membranes. As to conditions: 0.5 nM [3H]-spiperone, 1 h at RT, Cheng-Prusoff. On the procedure: The ability of the compounds to bind to the 5-HT2A, D3 and D2 receptors was determined using radioligand binding to cloned receptors selectively expressed in HEK-293 EBNA cells.
(§1) Membrane Preparation for Human D2, Human D3 and Human 5-HT2A Receptors
(§2) HEK-293 EBNA cells were transiently transfected with expression plasmids encoding for the human D2 or D3 dopamine- or for the human 5-HT2A serotonin receptor, respectively. The cells were harvested 48 h post-transfection, washed three times with cold PBS and stored at −80° C. prior to use. The pellet was suspended in cold 50 mM Tris-HCl buffer containing 10 mM EDTA (pH 7.4) and homogenized with a Polytron (Kinematica AG, Basel, Switzerland) for 20-30 sec at 12.000 rpm. After centrifugation at 48.000×g for 30 min at 4° C., the pellet was resuspended in cold 10 mM Tris-HCl buffer containing 0.1 mM EDTA (pH 7.4), homogenized, and centrifuged as above. This pellet was further resuspended in a smaller volume of ice cold 10 mM Tris-HCl buffer containing 0.1 mM EDTA (pH 7.4) and homogenized with a Polytron for 20-30 sec at 12.000 rpm. The protein content of this homogenate was determined with the Bio-Rad (Bradford) Protein Assay (Biorad Laboratories GmbH, München, Germany) according to the instructions of the manufacturer using gamma globulin as the standard. This homogenate was stored at −80° C. in aliquots and thawed immediately prior to use.
(§3) Radioligand Binding Assay Conditions
(§4) Aliquots of membrane preparations were thawed at RT, resuspended in assay buffer (D2, D3: 50 mM Tris-HCl, 120 mM NaCl, 5 mM MgCl2, 1 mM EDTA, 5 mM KCl, 1.5 mM CaCl2, pH=7.4; 5-HT2A: 50 mM Tris-HCl, 10 mM MgCl2, 1 mM EGTA, pH=7.4), homogenized with a Polytron for 20-30 sec at 12.000 rpm and adjusted to a final concentration of approximately 7.5 μg protein/well (D2, D3) and 15 μg protein/well (5-HT2A), respectively.
(§5) The binding affinity (Ki) of the compounds was determined using radioligand binding. Membranes were incubated in a total volume of 200 μl with a fixed concentration of radioligand (final concentration approximately 0.7 nM [^3H]-spiperone for D2, 0.5 nM [^3H]-spiperone for D3, and 1.1 nM [^3H]-ketanserin for 5-HT2A) and ten concentrations of test compound in ranging between 10 μM-0.1 nM for 1 h at RT. At the end of the incubation, the reaction mixtures were filtered on to unifilter 96-well white microplates with bonded GF/C filters (Packard BioScience, Zürich, Switzerland; preincubated for 1 h in 0.1% polyethylenimine (PEI) in assay buffer) with a Filtermate 196 harvester (Packard BioScience) and washed 3 times with cold assay buffer. The nonspecific binding was determined with equally composed reaction mixtures in the presence of 10 μM unlabeled spiperone. Per well 45 μl of Microscint 40 (Perkin Elmer, Schwerzenbach, Switzerland) was added, plates for sealed, shaken for 20 min and counted for 3 min on a Topcount Microplate Scintillation Counter (Canberra Packard SA, Zürich, Switzerland) with quenching correction.
(§6) The CPM value for each duplicate of a concentration of competing compound was averaged (yl), then the % specific binding was calculated according to the equation (((yl-non-specific)/(total binding-non-specific))×100). Graphs were plotted with the % specific binding using XLfit, a curve fitting program that iteratively plots the data using Levenburg Marquardt algorithm. The single site competition analysis equation used was y=A+((B−A)/(1+((x/C)^D))), where y is the % specific binding, A is the minimum y, B is the maximum y, C is the IC50, x is the log10 of the concentration of the competing compound and D is the slope of the curve (the Hill Coefficient). […] The affinity constant (Ki) was calculated using the Cheng-Prusoff equation Ki=(IC50/1+([L]/Kd), where [L] is the concentration of radioligand and Kd is the dissociation constant of the radioligand at the receptor as determined by the saturation isotherm.

Experiment [2] has as its target T2, human 5-HT2A serotonin receptor (Homo sapiens, UniProt P28223).
T2 construct: expressed in transfected cells; host or cells: HEK-293 EBNA cells, transient transfection; membrane preparation
The experiment can be described thus: Radioligand binding ([3H]-ketanserin) to cloned human 5-HT2A receptor, HEK-293 EBNA cell membranes. As to conditions: 1.1 nM [3H]-ketanserin, 1 h at RT, Cheng-Prusoff. On the procedure:
as §1
as §2, with “The” for “HEK-293 EBNA cells were transiently transfected with expression plasmids encoding for the human D2 or D3 dopamine- or for the human 5-HT2A serotonin receptor, respectively. The”
as §3, §4
The binding affinity (Ki) of the compounds was determined using radioligand binding. […] The nonspecific binding was determined with equally composed reaction mixtures in the presence of 10 μM unlabeled spiperone. Per well 45 μl of Microscint 40 (Perkin Elmer, Schwerzenbach, Switzerland) was added, plates for sealed, shaken for 20 min and counted for 3 min on a Topcount Microplate Scintillation Counter (Canberra Packard SA, Zürich, Switzerland) with quenching correction.
as §6

The target in experiment [3] is T3, human D2 dopamine receptor (Homo sapiens, UniProt P14416).
T3 construct: expressed in transfected cells; host or cells: HEK-293 EBNA cells, transient transfection; membrane preparation
T3 sequence (P14416 whole entry): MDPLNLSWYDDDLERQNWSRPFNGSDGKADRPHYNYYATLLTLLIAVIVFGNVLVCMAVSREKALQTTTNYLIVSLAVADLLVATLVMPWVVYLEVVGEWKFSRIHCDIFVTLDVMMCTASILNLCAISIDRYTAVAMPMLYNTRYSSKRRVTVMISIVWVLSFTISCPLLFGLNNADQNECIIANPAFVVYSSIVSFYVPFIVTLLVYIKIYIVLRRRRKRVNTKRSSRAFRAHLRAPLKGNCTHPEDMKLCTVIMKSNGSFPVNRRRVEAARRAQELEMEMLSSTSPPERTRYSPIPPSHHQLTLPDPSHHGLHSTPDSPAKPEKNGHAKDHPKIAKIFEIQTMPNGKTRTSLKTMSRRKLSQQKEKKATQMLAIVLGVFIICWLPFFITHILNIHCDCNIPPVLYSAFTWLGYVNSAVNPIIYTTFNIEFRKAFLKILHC
The experiment can be described thus: Radioligand binding ([3H]-spiperone) to cloned human D2 receptor, HEK-293 EBNA cell membranes. As to conditions: 0.7 nM [3H]-spiperone, 1 h at RT, Cheng-Prusoff. On the procedure:
as §1, §2, §3, §4, §5, §6

pKi: −log10 of the molar value.

T2 sequence (P28223 whole entry): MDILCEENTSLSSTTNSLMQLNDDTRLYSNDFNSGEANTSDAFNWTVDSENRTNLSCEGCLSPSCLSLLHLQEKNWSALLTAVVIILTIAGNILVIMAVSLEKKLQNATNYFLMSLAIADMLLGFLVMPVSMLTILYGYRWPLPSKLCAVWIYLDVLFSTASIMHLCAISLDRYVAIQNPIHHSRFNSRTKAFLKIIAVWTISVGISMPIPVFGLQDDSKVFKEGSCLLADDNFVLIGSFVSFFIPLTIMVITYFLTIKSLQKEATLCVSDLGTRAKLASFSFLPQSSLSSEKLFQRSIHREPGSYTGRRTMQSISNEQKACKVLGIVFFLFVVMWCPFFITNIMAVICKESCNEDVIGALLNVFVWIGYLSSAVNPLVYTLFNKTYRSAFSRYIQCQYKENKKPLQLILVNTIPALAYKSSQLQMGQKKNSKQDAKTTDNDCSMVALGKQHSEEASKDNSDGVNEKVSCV
T1 sequence (P35462 whole entry): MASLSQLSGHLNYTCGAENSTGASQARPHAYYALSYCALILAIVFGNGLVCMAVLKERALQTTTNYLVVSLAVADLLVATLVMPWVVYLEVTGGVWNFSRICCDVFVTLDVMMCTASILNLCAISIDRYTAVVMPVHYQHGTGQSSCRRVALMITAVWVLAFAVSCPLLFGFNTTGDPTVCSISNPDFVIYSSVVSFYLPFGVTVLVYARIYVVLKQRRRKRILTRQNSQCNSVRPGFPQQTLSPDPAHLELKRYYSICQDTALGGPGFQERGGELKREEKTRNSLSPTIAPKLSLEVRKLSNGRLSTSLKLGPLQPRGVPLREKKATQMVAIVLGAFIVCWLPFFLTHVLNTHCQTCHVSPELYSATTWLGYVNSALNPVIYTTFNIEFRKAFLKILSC

As for `O=C(CC1CCC(O)CC1)N[C@H]1CC[C@H](CCN2CCC(C(=O)c3ccc(F)cc3)CC2)CC1` (mixture of isomers) [Example 1, N-trans (4-{2-[4-(4-Fluoro-benzoyl)-piperidin-1-yl]-ethyl}-cyclohexyl)-2-cis/trans (4-hydroxy-cyclohexyl)-acetamide], the pKi – broadly, the Ki on a negative log10 scale, so that one unit is a factor of ten – in experiment [1] was 7.37; in experiment [2], 7.89; in experiment [3] it was 5.83.

Regarding `O=C(CC1CC(CO)C1)N[C@H]1CC[C@H](CCN2CCC(C(=O)c3ccc(F)cc3)CC2)CC1` (mixture of isomers) [Example 19, N-trans (4-{2-[4-(4-Fluoro-benzoyl)-piperidin-1-yl]-ethyl}-cyclohexyl)-2-cis/trans (3-hydroxymethyl-cyclobutyl)-acetamide], the values for the negative-log Ki (pKi) in experiment [1], in experiment [2] and in experiment [3] were 7.55, 7.96 and 6.00, respectively.

For the compound `COCC1CC(CC(=O)N[C@H]2CC[C@H](CCN3CCC(C(=O)c4ccc(F)cc4)CC3)CC2)C1` (mixture of isomers) [Example 20, N-trans(4-{2-[4-(4-Fluoro-benzoyl)-piperidin-1-yl]-ethyl}-cyclohexyl)-2-cis/trans (3-methoxymethyl-cyclobutyl)-acetamide], the pKi in experiment [1] is 7.57; in experiment [2], 7.92; in experiment [3] it was 5.87.

For the compound `CC1(O)CCC(CC(=O)N[C@H]2CC[C@H](CCN3CCC(C(=O)c4ccc(F)cc4)CC3)CC2)CC1` (mixture of isomers) [Example 22, N-trans (4-{2-[4-(4-Fluoro-benzoyl)-piperidin-1-yl]-ethyl}-cyclohexyl)-2-(4-cis/trans-hydroxy-4-methyl-cyclohexyl)-acetamide], the pKi is 7.25 in experiment [1], 7.92 in experiment [2] and 5.87 in experiment [3].

In the case of `O=C(C[C@H]1CCC[C@@H](O)C1)N[C@H]1CC[C@H](CCN2CCC(C(=O)c3ccc(F)cc3)CC2)CC1` (racemic) [Example 4, rac-N-trans (4-{2-[4-(4-Fluoro-benzoyl)-piperidin-1-yl]-ethyl}-cyclohexyl)-2-cis (3-hydroxy-cyclohexyl)-acetamide], the results for the negative logarithm of the Ki (pKi) in experiment [1], in experiment [2] and in experiment [3] were 7.37, 7.85 and 5.99, respectively.

Regarding `CO[C@@H]1CCC[C@H](CC(=O)N[C@H]2CC[C@H](CCN3CCC(C(=O)c4ccc(F)cc4)CC3)CC2)C1` (racemic) [Example 5, rac-N-trans (4-{2-[4-(4-Fluoro-benzoyl)-piperidin-1-yl]-ethyl}-cyclohexyl)-2-cis (3-methoxy-cyclohexyl)-acetamide], the figures for the pKi in experiment [1], in experiment [2] and in experiment [3] were 7.35, 7.72 and 5.93, respectively.

With `O=C(C[C@H]1CC[C@@H](O)C1)N[C@H]1CC[C@H](CCN2CCC(C(=O)c3ccc(F)cc3)CC2)CC1` (racemic) [Example 6, rac-trans-N (4-{2-[4-(4-Fluoro-benzoyl)-piperidin-1-yl]-ethyl}-cyclohexyl)-2-cis (3-hydroxy-cyclopentyl)-acetamide], the negative-log Ki (pKi) in experiment [1] was 7.46; in experiment [2], 7.96; in experiment [3] it was 6.08.

In the case of `CO[C@H]1CC[C@H](CC(=O)N[C@H]2CC[C@H](CCN3CCC(C(=O)c4ccc(F)cc4)CC3)CC2)C1` (racemic) [Example 8, rac-N-trans(4-{2-[4-(4-Fluoro-benzoyl)-piperidin-1-yl]-ethyl}-cyclohexyl)-2-trans (3-methoxy-cyclopentyl)-acetamide], the pKi in experiment [1] was 7.64; in experiment [2] it was 7.80.

For `CO[C@@H]1CC[C@H](CC(=O)N[C@H]2CC[C@H](CCN3CCC(C(=O)c4ccc(F)cc4)CC3)CC2)C1` (racemic) [Example 9, rac-N-trans (4-{2-[4-(4-Fluoro-benzoyl)-piperidin-1-yl]-ethyl}-cyclohexyl)-2-cis (3-methoxy-cyclopentyl)-acetamide], the pKi is 7.38 in experiment [1] and 8.22 in experiment [2].

Take `CO[C@@H]1CC[C@H](CC(=O)N[C@H]2CC[C@H](CCN3CCC(C(=O)c4ccc(F)cc4)CC3)CC2)C1` (single isomer, unassigned) [Example 10, N-trans (4-{2-[4-(4-Fluoro-benzoyl)-piperidin-1-yl]-ethyl}-cyclohexyl)-2-((1S,3R)-3-methoxy-cyclopentyl)-acetamide or N-trans (4-{2-[4-(4-fluoro-benzoyl)-piperidin-1-yl]-ethyl}-cyclohexyl)-2-((1R,3S)-3-methoxy-cyclopentyl)-acetamide]: the pKi was 7.25 in experiment [1] and 8.30 in experiment [2].

With `CO[C@H]1CC[C@@H](CC(=O)N[C@H]2CC[C@H](CCN3CCC(C(=O)c4ccc(F)cc4)CC3)CC2)C1` (single isomer, unassigned) [Example 11, N-trans (4-{2-[4-(4-Fluoro-benzoyl)-piperidin-1-yl]-ethyl}-cyclohexyl)-2-((1R,3S)-3-methoxy-cyclopentyl)-acetamide or N-trans (4-{2-[4-(4-fluoro-benzoyl)-piperidin-1-yl]-ethyl}-cyclohexyl)-2-((1S,3R)-3-methoxy-cyclopentyl)-acetamide], the values for the pKi in experiment [1] and in experiment [2] were 7.21 and 7.96, respectively.

`CO[C@H]1CC[C@H](CC(=O)N[C@H]2CC[C@H](CCN3CCC(C(=O)c4ccc(F)cc4)CC3)CC2)C1` (single isomer, unassigned) [Example 14, N-trans (4-{2-[4-(4-Fluoro-benzoyl)-piperidin-1-yl]-ethyl}-cyclohexyl)-2-((1S,3S)-3-methoxy-cyclopentyl)-acetamide or N-trans (4-{2-[4-(4-fluoro-benzoyl)-piperidin-1-yl]-ethyl}-cyclohexyl)-2-((1R,3R)-3-methoxy-cyclopentyl)-acetamide]: the negative-log Ki (pKi) in experiment [1] is 7.74; in experiment [2], 8.15.

Take `CO[C@@H]1CC[C@@H](CC(=O)N[C@H]2CC[C@H](CCN3CCC(C(=O)c4ccc(F)cc4)CC3)CC2)C1` (single isomer, unassigned) [Example 15, N-trans (4-{2-[4-(4-Fluoro-benzoyl)-piperidin-1-yl]-ethyl}-cyclohexyl)-2-((1R,3R)-3-methoxy-cyclopentyl)-acetamide or N-trans (4-{2-[4-(4-fluoro-benzoyl)-piperidin-1-yl]-ethyl}-cyclohexyl)-2-((1S,3S)-3-methoxy-cyclopentyl)-acetamide]: the results for the pKi in experiment [1] and in experiment [2] were 7.47 and 7.80, respectively.

Values taken from patent US8097637B2, “Benzoyl-piperidine derivatives as dual modulators of the 5-HT2A and D3 receptors” (Hoffmann-La Roche Inc., priority 2007, dated 2012).
